# Results: patent EP0874630B1, “TOP[…] POISON AND BIS-DIOXY[…] COMBINATION THERAPY” (priority 1996, dated 1997)
# “And” between values parts separate entries of the source, which are not always exact repeats. Identical values can stand only once. Like-named read-outs stand apart in the source and are kept apart here.
# Assays:
# mice [1] = experiment: Lethality in healthy mice after drugs given once i.p., with or without ICRF-187 pretreatment (survivors/treated); format: in vivo; conditions: for survivors/treated: compiled data from two experiments
# Protocol: Toxicity was evaluated by weight and leucocyte counts.
# The compiled data from two experiments showing that paclitaxel induced lethality cannot be protected by pretreamtment with ICRF-187. Groups of 11 mice were treated once i.p. with or without pretreatment with ICRF-187.
# mice [2] = conditions: for increase in LD10 enabled by ICRF-187: LD10 of the topoisomerase II poison with ICRF-187 versus alone, mice
# Source text: Calculation of LD10 and LD50 using the maximum likelihood estimation. The 6 experiments in Table 2 are included in the computations.
# [3] = system: Ehrlich's ascites tumour cells; experiment: Therapy study, mice inoculated i.p. with Ehrlich's ascites tumour cells (increase in life span); format: in vivo
# Protocol: (§1) In therapy studies, mice were inoculated i.p. with either 10^5 L1210 leukemia cells or 15x10^6 Ehrlich's ascites tumour cells on day 0 and treated with drugs i.p. on day 4 after inoculation. The brain tumour model consisted of 10^4 L1210 cells or 15x10^4 Ehrlich's ascites tumour cells in a volume of 30 µl of isotonic sodium chloride inoculated on day 0 into the temporal region followed by treatment i.p. on day 2, 3 or 4 after inoculation.
# (§2) 1×10^5 L1210 tumour cells or 15×10^6 Ehrlich's ascites tumour cells were inoculated i.p. on day 0 and mice were treated i.p. on day 4. The Mann Whitney test was used for statistical evaluation.
# L1210 leukemia cells = experiment: Therapy study, mice inoculated i.p. with L1210 leukemia cells (increase in life span); format: in vivo
# Protocol: as §1, §2
# mice [4] = conditions: mouse
# Protocol: First generation hybrids of female random bred Swiss mice and male inbred DBA (NDF1-hybrid) mice were used as previously described (5). The mice weighed between 19 and 21 g at the start of the experiments. […] Lethality was recorded and surviving mice were sacrificed after 60 days. Toxicity was evaluated by weight and leucocyte counts. For weight evaluations mice were treated with drugs, marked and weighed for eleven consecutive days. Blood for leucocyte counts was obtained from a tail vein and counted in a hemocytometer on days 3, 5 and 7 after treatment.
# [5] = NDF1 hybrid (female Swiss x male DBA), mouse, in vivo, ip, 60 days
smiles,measurement,setting,value
"CC(=O)O[C@H]1C(=O)[C@@]2(C)[C@H]([C@H](OC(=O)c3ccccc3)[C@]3(O)C[C@H](OC(=O)[C@H](O)[C@@H](NC(=O)c4ccccc4)c4ccccc4)C(C)=C1C3(C)C)[C@]1(OC(C)=O)CO[C@@H]1C[C@@H]2O [Paclitaxel, paclitaxel]","Survivors/ treated, %",mice [1]; Paclitaxel 30 mg/kg alone,100%
same,survivors/treated,mice [1]; Paclitaxel 30 mg/kg alone,22/22
same,"Survivors/ treated, %",mice [1]; Paclitaxel 40 mg/kg alone,55%
same,survivors/treated,mice [1]; Paclitaxel 40 mg/kg alone,12/22
same,"Survivors/ treated, %",mice [1]; Paclitaxel 50 mg/kg alone,0%
same,survivors/treated,mice [1]; Paclitaxel 50 mg/kg alone,0/22
COc1cc([C@@H]2c3cc4c(cc3[C@@H](O[C@@H]3O[C@@H]5CO[C@@H](C)O[C@H]5[C@H](O)[C@H]3O)[C@H]3COC(=O)[C@H]23)OCO4)cc(OC)c1O [etoposide],increase in LD10 enabled by ICRF-187,mice [2],3.6 fold
same,LD10,"mice [2]; dose of etoposide killing 10% of the mice, maximum likelihood estimation, 6 experiments of Table 2, combination with 125 mg/kg ICRF-187, 125 mg/kg",34 mg/kg and 33 mg/kg
same,LD10,"mice [2]; dose of etoposide killing 10% of the mice, maximum likelihood estimation, 6 experiments of Table 2, combination with 125 mg/kg ICRF-187, listed as VP-16, 125 mg/kg",34.0 mg/kg
same,log LD10,"mice [2]; maximum likelihood estimation on the 6 experiments of Table 2, combination with 125 mg/kg ICRF-187",1.531
same,ILS(%),"[3]; Etoposide 33 mg/kg i.p. on day 4, 15×10^6 Ehrlich's ascites tumour cells i.p. on day 0",53% and 40% and 35%
same,"increased life span, ILS(%) (etoposide alone set to 100)","[3]; Table 5A, Etoposide 33 mg/kg, Ehrlich's tumour cells i.p.",100%
same,ILS(%),"L1210 leukemia cells; Etoposide 33 mg/kg i.p. on day 4, 1×10^5 L1210 tumour cells i.p. on day 0",113% and 100% and 88%
same,"increased life span, ILS(%) (etoposide alone set to 100)","L1210 leukemia cells; Table 5B, Etoposide 33 mg/kg, L 1210 tumour cells i.p.",100%
"C[C@@H](CN1CC(=O)NC(=O)C1)N1CC(=O)NC(=O)C1 [ICRF-187, (+)-1,2-bis(3,5-dioxopiperazinyl-1-yl)propane]",survivors/treated,"mice [4]; NDF1 hybrid (female Swiss x male DBA), in vivo, 100 mg/kg, 60 days",11/11
same,ICRF-187 mediated protection in vivo,mice [4],not obtained
same,LD10,mice [2]; [5],500 mg/kg
same,LD90,mice [2]; [5],1500 mg/kg
same,antitumour effect,"[3]; ICRF-187 alone, mice inoculated i.p. with Ehrlich's ascites tumour",no antitumour effect
same,antitumour effect,"L1210 leukemia cells; ICRF-187 alone, mice inoculated i.p. with L1210 tumour cells",no antitumour effect
COc1cc([C@@H]2c3cc4c(cc3[C@@H](O[C@@H]3O[C@@H]5CO[C@@H](c6cccs6)O[C@H]5[C@H](O)[C@H]3O)[C@H]3COC(=O)[C@H]23)OCO4)cc(OC)c1O [teniposide],increase in LD10 enabled by ICRF-187,mice [2],3.4 fold
